Where two headings read alike, the source gives them in different places.
Columns and labels:
THP-1 cells = experiment: Caspase 3/7 and 7-AAD staining (flow cytometry); conditions: doxorubicin alone at sublethal concentration (62.5 nM, 48 h)
[1] = system: LSD1 and HDAC substrates in THP-1 cells; experiment: Western blot of methylation and acetylation levels of LSD1 and HDAC substrates; format: cell-based; conditions: for nuclear histone H3 acetylation (H3K18ac and H3K27ac levels), change vs DMSO: 24 h (ricolinostat 0.75 μM or 4 μM)
HDAC6 [2] = target: T1, HDAC6 (Homo sapiens, UniProt Q9UBN7); experiment: Cellular thermal shift assay (CETSA), HDAC6; format: cell-based; conditions: THP-1 cells, 1 h; 4 μM (methods, Figure 2), Figure S14 legend 500 nM
T1 construct: endogenous in cells; host or cells: THP-1
T1 sequence (Q9UBN7 1-1215): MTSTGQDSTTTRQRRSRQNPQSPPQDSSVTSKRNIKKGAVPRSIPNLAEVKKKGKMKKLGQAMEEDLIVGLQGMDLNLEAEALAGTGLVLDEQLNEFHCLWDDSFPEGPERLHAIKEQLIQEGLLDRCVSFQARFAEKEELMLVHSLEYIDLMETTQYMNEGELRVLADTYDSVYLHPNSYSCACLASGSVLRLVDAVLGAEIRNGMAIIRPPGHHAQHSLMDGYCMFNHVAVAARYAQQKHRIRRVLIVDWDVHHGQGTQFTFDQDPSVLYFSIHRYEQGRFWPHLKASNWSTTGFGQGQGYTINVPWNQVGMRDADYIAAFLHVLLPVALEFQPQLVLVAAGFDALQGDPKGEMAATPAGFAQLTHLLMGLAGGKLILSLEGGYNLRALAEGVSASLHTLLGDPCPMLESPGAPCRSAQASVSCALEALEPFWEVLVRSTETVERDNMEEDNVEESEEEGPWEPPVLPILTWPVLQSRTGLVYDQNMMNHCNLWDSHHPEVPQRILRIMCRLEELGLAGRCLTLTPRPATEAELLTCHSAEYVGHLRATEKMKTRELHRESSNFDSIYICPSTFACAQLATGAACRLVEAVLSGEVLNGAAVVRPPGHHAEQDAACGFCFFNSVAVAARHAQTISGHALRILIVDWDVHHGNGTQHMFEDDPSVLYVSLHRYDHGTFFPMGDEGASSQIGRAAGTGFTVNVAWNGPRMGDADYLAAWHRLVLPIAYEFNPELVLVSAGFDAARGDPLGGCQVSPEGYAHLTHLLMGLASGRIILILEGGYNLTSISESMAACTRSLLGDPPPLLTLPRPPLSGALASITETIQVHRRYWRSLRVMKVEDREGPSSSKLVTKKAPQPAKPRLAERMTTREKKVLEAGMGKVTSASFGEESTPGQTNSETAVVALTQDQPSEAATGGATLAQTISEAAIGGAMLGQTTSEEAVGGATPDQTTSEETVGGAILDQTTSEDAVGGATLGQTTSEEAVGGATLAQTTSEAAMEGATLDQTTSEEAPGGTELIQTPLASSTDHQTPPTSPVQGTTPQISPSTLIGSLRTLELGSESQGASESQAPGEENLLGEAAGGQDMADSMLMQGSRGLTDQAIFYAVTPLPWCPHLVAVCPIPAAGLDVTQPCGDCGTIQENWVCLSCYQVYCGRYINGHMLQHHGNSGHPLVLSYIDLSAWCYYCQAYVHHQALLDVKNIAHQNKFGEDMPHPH
Description: (§1) THP-1 cells, 1 × 10^7 cells at a density of 1 × 10^6 cells/mL, were treated with 4 μM of test compounds (1 h, 37 °C, 5% CO2). Cells were centrifuged, and the pellet was resuspended with 1 × Phosphate Buffer Saline (Gibco, Grand Island, NY, USA, #10010023) containing 1 × Protease Inhibitor Cocktail (Cell Signaling Technology, Beverly, MA, USA, #5871) and 1 mM phenylmethylsulfonyl fluoride (PMSF, Sigma Aldrich, St. Louis, MO, USA, #10837091001). The suspension volume was divided equally and heated for 3 min at 43–64 °C in a T100 Thermal Cycler (Bio-rad, Hercules, CA, USA). For protein extraction, cells were snap-frozen using liquid nitrogen, thawed twice (25 °C, 1 min), then centrifuged (20,000× g, 15 min, 4 °C). Following centrifugation, protein containing supernatants were denatured at 70 °C for 10 min and loaded on SDS-PAGE gels (Bio-Rad, Hercules, CA, USA, 161-0317). After electrophoresis (100 V and 60 min), proteins were transferred onto PVDF membrane (Bio-Rad #1620177) at 200 mA for 180 min and immunoblotted with primary antibodies (1:10,000 dilution for anti-LSD1 Antibody ab129195 [EPR6825], 1:1000 dilution for Anti-HDAC6 Antibody CST 7558, 1:1000 dilution for Anti-HDAC1 Antibody ab53091, 1:1000 dilution for Anti-HDAC8 Antibody ab187139, 1:5000 dilution for Anti-beta Actin Antibody ab8227) overnight at 4 °C. The next day, membranes were incubated with HRP-conjugated secondary antibodies (1:5000 dilution for Abcam, Cambridge, UK, ab205718) for 1 h at room temperature. The signal was detected with BIORAD Chemi-Doc XRS+ System and by using Immobilon Forte Western HRP Substrate (WBLUF0500).

Jurkat = experiment: Cell Titer-Glo cell viability, Jurkat; format: cell-based; conditions: Homo sapiens, 120 h, read-out: IC50 cell viability Jurkat
HDAC1 = target: T2, HDAC1 (Homo sapiens, UniProt Q13547); experiment: Cellular thermal shift assay (CETSA), HDAC1; format: cell-based; conditions: THP-1 cells, 1 h; 4 μM (methods), Figure S14 legend 500 nM
T2 construct: endogenous in cells; host or cells: THP-1
Description: (§2) THP-1 cells, 1 × 10^7 cells at a density of 1 × 10^6 cells/mL, were treated with 4 μM of test compounds (1 h, 37 °C, 5% CO2). Cells were centrifuged, and the pellet was resuspended with 1 × Phosphate Buffer Saline (Gibco, Grand Island, NY, USA, #10010023) containing 1 × Protease Inhibitor Cocktail (Cell Signaling Technology, Beverly, MA, USA, #5871) and 1 mM phenylmethylsulfonyl fluoride (PMSF, Sigma Aldrich, St. Louis, MO, USA, #10837091001). The suspension volume was divided equally and heated for 3 min at 43–64 °C in a T100 Thermal Cycler (Bio-rad, Hercules, CA, USA). For protein extraction, cells were snap-frozen using liquid nitrogen, thawed twice (25 °C, 1 min), then centrifuged (20,000× g, 15 min, 4 °C). Following centrifugation, protein containing supernatants were denatured at 70 °C for 10 min and loaded on SDS-PAGE gels (Bio-Rad, Hercules, CA, USA, 161-0317). […] The signal was detected with BIORAD Chemi-Doc XRS+ System and by using Immobilon Forte Western HRP Substrate (WBLUF0500).

MOLM-13 [3] = experiment: Cell Titer-Glo cell viability, MOLM-13; format: cell-based; conditions: Homo sapiens, read-out: IC50 cell viability MOLM-13
HDAC6 [4] = target: T1, HDAC6; design: method as in PMID 22262760; conditions: cited from earlier work
THP-1 = experiment: Cell Titer-Glo cell viability, THP-1; format: cell-based; conditions: Homo sapiens, read-out: IC50 cell viability THP-1
K-562 = experiment: Cell Titer-Glo cell viability, K-562; format: cell-based; conditions: Homo sapiens, read-out: IC50 cell viability K-562
MOLM-13 [5] = experiment: Combination treatment with doxorubicin, MOLM-13 cell viability; format: cell-based; conditions: iDual 0.5 μM, iHDAC6 0.5 μM, GSK2879552 1.25 μM, ricolinostat […], 72 h then + doxorubicin 2 nM 48 h
LSD1 [6] = target: T3, LSD1 (Homo sapiens, UniProt O60341); experiment: Cellular thermal shift assay (CETSA), LSD1; format: cell-based; design: endogenous in cells; host or cells: THP-1; conditions: THP-1 cells, 1 h; 4 μM (methods, Figure 2), Figure S14 legend 500 nM
Description: as §1

HDAC-3/NcoR2 = target: T4, HDAC-3/NcoR2 (Homo sapiens, UniProt O15379); experiment: HDAC-Glo I/II enzyme assay, HDAC3; format: biochemical; conditions: ± standard error, three independent measurements
T4 construct: purchased BPS Bioscience 50003

LSD1 [7] = target: T3, LSD1; experiment: LSD1 MALDI-TOF enzyme assay; format: biochemical; design: made in house; conditions: ± standard error, three independent measurements
[8] = target: T5, Human recombinant C-ter-His-FLAG-HDAC1 (Homo sapiens, UniProt Q13547); experiment: HDAC-Glo I/II enzyme assay, HDAC1; format: biochemical; conditions: ± standard error, three independent measurements
T5 construct: His (C); FLAG (C); purchased BPS Bioscience 50051

N-ter-GST-HDAC-6 = target: T6, N-ter-GST-HDAC-6 (Homo sapiens, UniProt Q9UBN7); experiment: HDAC-Glo I/II enzyme assay, HDAC6; format: biochemical; conditions: ± standard error, three independent measurements
T6 construct: GST (N); purchased BPS Bioscience 50006
T6 sequence (Q9UBN7 1-1215): T1 sequence (Q9UBN7 1-1215)

HDAC8 = target: T7, HDAC8 (Homo sapiens, UniProt Q9BY41); experiment: Cellular thermal shift assay (CETSA), HDAC8; format: cell-based; conditions: THP-1 cells, 1 h; 4 μM (methods, Figure 2), Figure S14 legend 500 nM
T7 construct: endogenous in cells; host or cells: THP-1
T7 sequence (Q9BY41 1-377): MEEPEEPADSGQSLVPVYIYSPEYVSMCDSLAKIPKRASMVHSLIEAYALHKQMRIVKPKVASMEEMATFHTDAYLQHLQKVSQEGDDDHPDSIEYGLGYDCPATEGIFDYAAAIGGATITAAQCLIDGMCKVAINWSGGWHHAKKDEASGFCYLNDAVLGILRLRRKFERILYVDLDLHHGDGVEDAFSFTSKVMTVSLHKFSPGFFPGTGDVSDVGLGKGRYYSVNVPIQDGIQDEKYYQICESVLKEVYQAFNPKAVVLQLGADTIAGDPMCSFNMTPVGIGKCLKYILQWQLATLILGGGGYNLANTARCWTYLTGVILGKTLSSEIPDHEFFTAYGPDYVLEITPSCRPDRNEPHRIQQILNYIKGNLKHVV
Description: as §2

C-terminal His-tag-HDAC8 = target: T8, C-terminal His-tag-HDAC8 (Homo sapiens, UniProt Q9BY41); experiment: HDAC-Glo I/II enzyme assay, HDAC8; format: biochemical; conditions: ± standard error, three independent measurements
T8 construct: His (C); purchased BPS Bioscience 50008
T8 sequence (Q9BY41 1-377): T7 sequence (Q9BY41 1-377)

[9] = cited from earlier work
LSD2 = conditions: cited from earlier work
MAOs = conditions: cited from earlier work
[10] = ± standard deviation, three biological repeats
[11] = MOLM-13, 120 h, ± standard deviation, three biological repeats
[12] = THP-1, 120 h, ± standard deviation, three biological repeats
[13] = K562, 120 h, ± standard deviation, three biological repeats

T4 sequence (O15379 whole entry): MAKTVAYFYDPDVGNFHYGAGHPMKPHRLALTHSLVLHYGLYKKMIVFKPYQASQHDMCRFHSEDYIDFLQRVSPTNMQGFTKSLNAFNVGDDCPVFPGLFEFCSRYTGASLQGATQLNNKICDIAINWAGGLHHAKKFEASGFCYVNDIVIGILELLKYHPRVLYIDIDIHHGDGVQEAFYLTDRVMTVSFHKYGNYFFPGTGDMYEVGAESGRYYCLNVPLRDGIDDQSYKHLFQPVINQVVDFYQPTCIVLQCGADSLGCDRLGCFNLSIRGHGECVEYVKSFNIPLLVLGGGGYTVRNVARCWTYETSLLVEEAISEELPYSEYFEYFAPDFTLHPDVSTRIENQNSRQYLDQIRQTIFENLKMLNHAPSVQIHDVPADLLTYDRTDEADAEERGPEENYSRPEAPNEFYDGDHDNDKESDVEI
T4 sequence (Q9Y618 395-489 partner limits assumed): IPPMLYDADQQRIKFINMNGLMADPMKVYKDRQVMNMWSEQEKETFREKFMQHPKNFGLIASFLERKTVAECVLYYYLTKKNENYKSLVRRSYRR
T2 sequence (Q13547 whole entry): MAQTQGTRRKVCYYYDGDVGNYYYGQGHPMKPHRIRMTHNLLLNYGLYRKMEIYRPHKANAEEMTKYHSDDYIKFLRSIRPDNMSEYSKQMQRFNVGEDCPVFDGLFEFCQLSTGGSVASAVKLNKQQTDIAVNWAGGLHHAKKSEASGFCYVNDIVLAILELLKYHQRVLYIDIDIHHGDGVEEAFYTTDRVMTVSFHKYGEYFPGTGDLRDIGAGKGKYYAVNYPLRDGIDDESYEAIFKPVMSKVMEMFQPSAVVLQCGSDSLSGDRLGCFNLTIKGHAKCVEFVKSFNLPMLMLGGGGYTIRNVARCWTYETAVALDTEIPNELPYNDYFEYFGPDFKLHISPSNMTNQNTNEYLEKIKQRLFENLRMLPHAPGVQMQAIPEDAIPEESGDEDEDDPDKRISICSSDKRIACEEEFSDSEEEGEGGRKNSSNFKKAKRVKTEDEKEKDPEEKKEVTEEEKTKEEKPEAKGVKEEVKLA
T5 sequence (Q13547 whole entry): as above

| Compound | nuclear histone H3 acetylation (H3K18ac and H3K27ac levels), change vs DMSO ([1]; 4 μM) | thermal stabilization of HDAC6 (CETSA) (HDAC6 [2]) | thermal stabilization of HDAC1 (CETSA) (HDAC1) | cell viability after priming with compound and co-treatment with doxorubicin 2 nM (MOLM-13 [5]) | thermal stabilization of LSD1 (CETSA) (LSD1 [6]) | IC50 (Jurkat; [10]) [µM] | IC50 (HDAC-3/NcoR2) [µM] | IC50 (LSD1 [7]) [nM] | IC50 (MOLM-13 [3]; [11]) [µM] | IC50 [8] [µM] | IC50 (THP-1; [12]) [µM] | IC50 (N-ter-GST-HDAC-6) [µM] | IC50 (K-562; [13]) [µM] | IC50 (C-terminal His-tag-HDAC8) [µM] | also measured |
| --- | --- | --- | --- | --- | --- | --- | --- | --- | --- | --- | --- | --- | --- | --- | --- |
| COc1cccc2c1C(=O)c1c(O)c3c(c(O)c1C2=O)C[C@@](O)(C(=O)CO)C[C@@H]3O[C@H]1C[C@H](N)[C@H](O)[C@H](C)O1 [doxorubicin] | – | – | – | – | – | – | – | – | – | – | – | – | – | – | cells in the apoptosis/dead quadrant (caspase 3/7 staining), drug alone (THP-1 cells): 30% |
| O=C(CCCCCCNC(=O)c1cnc(N(c2ccccc2)c2ccccc2)nc1)NO [ricolinostat, reference compound] | greater effect | stabilizing HDAC6 | stabilized | next in terms of activity | – | – | – | – | – | – | – | – | – | – | acetylation levels of α-tubulin, fold increase vs DMSO ([1]; 4 μM, 24 h): 25 fold; acetylation levels of α-tubulin, fold increase vs DMSO ([1]; ~0.75 μM (similar fraction of IC50), 24 h): 20 fold; IC50 (Jurkat): 1.9 ± 0.003 µM; IC50 (MOLM-13 [3]; MOLM-13, 120 h): 0.2 ± 0.03 µM; HDAC6/HDAC1 isoform selectivity reported (HDAC6 [4]): approximately 10 fold; IC50 (THP-1; THP-1, 120 h): 2.9 ± 0.1 µM; IC50 (K-562; K562, 120 h): 2.6 ± 0.3 µM |
| O=C(O)c1ccc(CN2CCC(CNC3(c4ccccc4)CC3)CC2)cc1 [iNC] | – | did not exhibit target engagement | did not exhibit target engagement | – | did not exhibit target engagement | > 20 | > 100 | > 100000 | > 20 | > 100 | > 20 | > 100 | > 20 | > 100 | thermal stabilization of HDAC8 (CETSA) (HDAC8): did not exhibit target engagement |
| O=C(O)c1ccc(CN2CCC(CN[C@@H]3C[C@H]3c3ccccc3)CC2)cc1 [GSK2879552, reference compound] | did not significantly alter | – | – | relatively ineffective | stabilizing LSD1 only | > 20 | > 100 | 1540 ± 410 | 15 ± 3.5 | > 100 | > 20 | > 100 | > 20 | > 100 | levels of the histone substrate H3K4me2 ([1]; 4 μM, 24 h): increase; in vivo oral bioavailability [9]: favorable; inhibition of LSD2 (LSD2): undetectable levels of inhibition; inhibition of MAOs (MAOs): undetectable levels of inhibition |

Source: PMC9737972, “Dual LSD1 and HDAC6 Inhibition Induces Doxorubicin Sensitivity in Acute Myeloid Leukemia Cells” (Cancers, 2022)
